Experiments:
Assay type in all cases: biochemical
[1] = biological target: T1, phosphorylated VEGF-R2Δ50 (FLVK-P) (Homo sapiens, UniProt P35968, DEL940-989/E990V); assay: VEGF-R2 coupled spectrophotometric (FLVK-P) assay; settings: combinatorial library compounds; for inhibition at 20 µM: read-out: VEGF % inhibition at 20 μM, 20 μM
T1 construct: VEGF-R2Δ50 contains residues 806-939 and 990-1171; made in house; host or cells: baculovirus/insect cells
Method in brief: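 Baculovirus-expressed human VEGF-R2Δ50 (residues 806-939/990-1171, E990V) was autophosphorylated with 3 mM ATP, 40 mM MgCl2 for 2 h at 4° C. ADP formation was coupled via PK/LDH to NADH oxidation, read at 340 nm, with 5.1 mM poly(E4Y1), 1 mM ATP, 25 mM MgCl2, Hepes pH 7.5. Ki came from activity across compound concentrations.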

CDK4/Cyclin D3 complex = biological target: T2, CDK4/Cyclin D3 complex (Homo sapiens, UniProt P11802); assay: CDK4/Cyclin D assay; settings: 1.0 μM; combinatorial library compounds
T2 construct: made in house; host or cells: insect cells co-infected with baculovirus vectors
Method in brief: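 Insect-cell-expressed CDK4/cyclin D3 (50 nM) phosphorylating His-tagged Rb fragment (residues 386-928) with 25 μM [^32P]ATP in HEPES pH 7.4, MgCl2, 2% DMSO; 20 min at 30 °C, EDTA stop. Filter-captured 32P by phosphorimager; apparent Ki from competitive or tight-binding inhibition fits.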

FL-CHK1 = biological target: T3, FL-CHK1 (Homo sapiens, UniProt O14757); assay: CHK1 assay; settings: 20 μM; combinatorial library compounds
T3 construct: C-terminally His-tagged full-length human CHK1 (FL-CHK1); 6xHis (C); made in house; host or cells: baculovirus/insect cells
T3 sequence (O14757 1-476): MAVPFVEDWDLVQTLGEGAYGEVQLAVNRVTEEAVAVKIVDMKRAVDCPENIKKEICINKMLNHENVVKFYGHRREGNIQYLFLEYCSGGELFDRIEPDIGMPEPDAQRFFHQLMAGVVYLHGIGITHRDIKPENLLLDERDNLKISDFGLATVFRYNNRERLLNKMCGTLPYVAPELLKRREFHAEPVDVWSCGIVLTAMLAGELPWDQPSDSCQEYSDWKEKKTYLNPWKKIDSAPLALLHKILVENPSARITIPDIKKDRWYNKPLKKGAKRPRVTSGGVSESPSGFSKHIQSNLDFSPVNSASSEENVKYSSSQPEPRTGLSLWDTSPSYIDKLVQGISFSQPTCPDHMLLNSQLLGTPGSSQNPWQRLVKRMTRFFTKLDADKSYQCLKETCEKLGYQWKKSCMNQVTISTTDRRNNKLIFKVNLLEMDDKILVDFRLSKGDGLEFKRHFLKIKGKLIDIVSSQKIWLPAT
Method in brief: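 Full-length human CHK1 with C-terminal 6×His tag, made in baculovirus/insect cells, 10 nM, phosphorylating 0.125 mM Syntide-2 with 0.15 mM ATP in 50 mM Tris pH 7.5, 25 mM MgCl2, 400 mM NaCl. PK/LDH-coupled NADH oxidation read at 340 nm. Ki from initial rates over varied compound concentrations.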

CDK2/Cyclin A complex = CDK2/Cyclin A complex (Homo sapiens, UniProt P24941); assay: CDK2/Cyclin A assay; settings: 1.0 μM; combinatorial library compounds
Method in brief: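 Radiometric assay: 150 nM CDK2/cyclin A (insect-cell CDK2, truncated cyclin A) phosphorylates His-tagged Rb fragment (residues 386-928) with 25 μM ATP plus [32P]ATP, pH 7.4 HEPES, 2% DMSO, 30 °C for 20 min. Filter-captured product counted by phosphorimager; apparent Ki from competitive or tight-binding inhibition fits.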

T2 sequence (P11802 whole entry): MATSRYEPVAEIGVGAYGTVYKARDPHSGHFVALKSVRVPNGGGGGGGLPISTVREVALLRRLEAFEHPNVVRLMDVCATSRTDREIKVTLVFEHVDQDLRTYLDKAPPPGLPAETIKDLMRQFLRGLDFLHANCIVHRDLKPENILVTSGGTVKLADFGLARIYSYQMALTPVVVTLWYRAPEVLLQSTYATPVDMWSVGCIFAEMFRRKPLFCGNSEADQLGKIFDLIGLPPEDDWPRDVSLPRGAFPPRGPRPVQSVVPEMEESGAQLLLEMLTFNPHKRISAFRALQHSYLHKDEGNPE
T2 sequence (P30281 whole entry partner): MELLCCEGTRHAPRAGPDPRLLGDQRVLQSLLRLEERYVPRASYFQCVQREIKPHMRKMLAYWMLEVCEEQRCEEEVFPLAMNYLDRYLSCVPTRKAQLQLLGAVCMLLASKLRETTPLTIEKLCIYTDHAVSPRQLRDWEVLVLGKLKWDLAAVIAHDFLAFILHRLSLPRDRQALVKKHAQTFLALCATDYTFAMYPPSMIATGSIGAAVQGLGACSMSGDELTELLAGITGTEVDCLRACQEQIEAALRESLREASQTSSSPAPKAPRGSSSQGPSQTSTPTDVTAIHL
T1 sequence (P35968 with tags, fused parts or gaps DEL940-989/E990V limits assumed): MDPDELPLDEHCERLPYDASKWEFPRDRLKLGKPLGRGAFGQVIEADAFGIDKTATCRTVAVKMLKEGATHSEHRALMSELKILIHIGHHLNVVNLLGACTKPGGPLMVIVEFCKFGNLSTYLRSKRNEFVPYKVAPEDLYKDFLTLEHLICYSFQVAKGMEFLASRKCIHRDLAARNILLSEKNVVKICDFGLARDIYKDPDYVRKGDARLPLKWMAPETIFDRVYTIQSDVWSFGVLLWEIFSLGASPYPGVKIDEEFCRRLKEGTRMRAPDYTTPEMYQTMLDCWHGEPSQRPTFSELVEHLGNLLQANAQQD

SMILES	inhibition at 20 µM [1]	inhibition at 1 µM (CDK4/Cyclin D3 complex)	inhibition at 20 µM (FL-CHK1)	inhibition at 1 µM (CDK2/Cyclin A complex)	VEGF % inhibition at 20 μM ([1]; 20 μM)	CDK4 % Inhibition at 1.0 μM (CDK4/Cyclin D3 complex)	CDK2 % Inhibition at 1.0 μM (CDK2/Cyclin A complex)
CN(C)c1ccc(Nc2nc(N)c(-c3nc(-c4ccc(O)c(O)c4)cs3)s2)cc1	34%	53%	46.5%	16.8%			
CN(C)c1ccc(Nc2nc(N)c(-c3nc(-c4ccc(Cl)cc4Cl)cs3)s2)cc1	19%	76.1%	26.9%	17.3%			
Cc1onc(-c2ccccc2)c1-c1csc(-c2sc(Nc3ccc(N(C)C)cc3)nc2N)n1	25%	59.8%	8.1%	8.3%			
CN(C)c1ccc(Nc2nc(N)c(-c3nc(-c4ccc(F)cc4)cs3)s2)cc1	41%	56%	41.7%	34.8%			
CN(C)c1ccc(Nc2nc(N)c(-c3nc(-c4ccc[nH]4)cs3)s2)cc1	28%	63.6%	32.5%	31.7%			
CN(C)c1ccc(Nc2nc(N)c(-c3nc(-c4ccc(F)c(F)c4)cs3)s2)cc1	8%	8.1%	4.2%	3.3%			
CN(C)c1ccc(Nc2nc(N)c(-c3nc(-c4ccc(Cl)c(Cl)c4)cs3)s2)cc1	0%	-6.5%	5.1%	9.2%			
Cc1ccc(-c2csc(-c3sc(Nc4ccc(N(C)C)cc4)nc3N)n2)c(C)c1	21%	23.3%	-0.9%	16.1%			
CN(C)c1ccc(Nc2nc(N)c(-c3nc(-c4ccc(CC(=O)O)s4)cs3)s2)cc1	28%	69.4%	38.1%	6.3%			
CN(C)c1ccc(Nc2nc(N)c(-c3nc(-c4cccc(OC(=O)c5ccccc5)c4)cs3)s2)cc1	16%	57.5%	23.3%	0.6%			
COc1cc(OC)c(-c2csc(-c3sc(Nc4ccc(N(C)C)cc4)nc3N)n2)c(O)c1Cl	36%	69.3%	41.1%	24.1%			
CN(C)c1ccc(Nc2nc(N)c(-c3nc(-c4ccc(C(F)(F)F)cc4)cs3)s2)cc1	5%	60.3%	13.1%	33.4%			
CN(C)c1ccc(Nc2nc(N)c(-c3nc(-c4ccc5c(c4)CCC(=O)N5)cs3)s2)cc1	20%	43.7%	32.7%	-2.5%			
CCc1cc2c(cc1-c1csc(-c3sc(Nc4ccc(N(C)C)cc4)nc3N)n1)C(C)(C)CCC2(C)C	17%	70.9%	18.8%	20.5%			
COc1ccc2nc(-c3ccccc3)c(-c3csc(-c4sc(Nc5ccc(N(C)C)cc5)nc4N)n3)cc2c1	14%	81.8%	26%	24.6%			
COc1ccccc1-c1csc(-c2sc(Nc3ccc(S(N)(=O)=O)cc3)nc2N)n1 [drawing 394]	21%	16%	18.7%	18.9%			
COc1ccc(-c2csc(-c3sc(Nc4ccc(S(N)(=O)=O)cc4)nc3N)n2)cc1 [drawing 399]			6.9%		48%	9.3%	10.7%
Nc1nc(Nc2ccc(S(N)(=O)=O)cc2)sc1-c1nc(-c2ccc(Cl)cc2Cl)cs1 [drawing 406]	32%	79.2%	14.7%	63%			

More lines, now with the values ahead:

inhibition at 20 µM [1]	inhibition at 1 µM (CDK4/Cyclin D3 complex)	inhibition at 20 µM (FL-CHK1)	inhibition at 1 µM (CDK2/Cyclin A complex)	VEGF % inhibition at 20 μM ([1]; 20 μM)	CDK4 % Inhibition at 1.0 μM (CDK4/Cyclin D3 complex)	CDK2 % Inhibition at 1.0 μM (CDK2/Cyclin A complex)	SMILES
5%	45.5%	19.6%	26.9%				CN(C)c1ccc(Nc2nc(N)c(-c3nc(-c4ccc5ccccc5c4)cs3)s2)cc1
32%	64.1%	43.9%	24%				Cc1cc(-c2csc(-c3sc(Nc4ccc(N(C)C)cc4)nc3N)n2)c(C)s1
16%	56.5%	40.8%	5%				CN(C)c1ccc(Nc2nc(N)c(-c3nc(-c4ccc5c(c4)OCCO5)cs3)s2)cc1
-4%	49.4%	5.5%	8.7%				CN(C)c1ccc(Nc2nc(N)c(-c3nc(-c4ccc(OC(=O)c5ccccc5)cc4)cs3)s2)cc1
6%	27%	13.8%	17.1%				CN(C)c1ccc(Nc2nc(N)c(-c3nc(-c4cccc([N+](=O)[O-])c4)cs3)s2)cc1
46%	66.8%	47.1%	26.6%				CN(C)c1ccc(Nc2nc(N)c(-c3nc(-c4ccc(O)cc4)cs3)s2)cc1
24%	52.4%	27.2%	29.8%				Cc1cc(-c2csc(-c3sc(Nc4ccc(N(C)C)cc4)nc3N)n2)cc(C)c1O
35%	64.4%	41.4%	33.3%				CN(C)c1ccc(Nc2nc(N)c(-c3nc(-c4c(Cl)c(Cl)nc(Cl)c4Cl)cs3)s2)cc1
27%	63.5%	29.3%	38.3%				CN(C)c1ccc(Nc2nc(N)c(-c3nc(-c4ccc5oc6ccccc6c5c4)cs3)s2)cc1
18%	74.4%	32.9%	3.1%				CN(C)c1ccc(Nc2nc(N)c(-c3nc(-c4ccc5c(c4)C(C)(C)CCC5(C)C)cs3)s2)cc1
23%	48.5%	9.8%	27.1%				CN(C)c1ccc(Nc2nc(N)c(-c3nc(-c4ccccc4OC(=O)c4ccccc4)cs3)s2)cc1
26%	12.1%	3.2%	23.3%				Cc1c(-c2csc(-c3sc(Nc4ccc(N(C)C)cc4)nc3N)n2)sc2ccccc12
6%	73.2%	37.1%	18.3%				CN(C)c1ccc(Nc2nc(N)c(-c3nc(-c4cc(C(C)(C)C)c(O)c(C(C)(C)C)c4)cs3)s2)cc1
33%	-9.6%	-2.1%	20.5%				Cc1ccc(-c2csc(-c3sc(Nc4ccc(S(N)(=O)=O)cc4)nc3N)n2)cc1 [drawing 395]
-3%	-11.3%	12.3%	11.2%				Nc1nc(Nc2ccc(S(N)(=O)=O)cc2)sc1-c1nc(-c2ccc(-c3ccccc3)cc2)cs1 [drawing 404]
43%	61.2%	33.7%	74.7%				Nc1nc(Nc2ccc(S(N)(=O)=O)cc2)sc1-c1nc(-c2ccc(F)cc2)cs1 [drawing 409]
56%	51.3%	18.7%	57.9%				Nc1nc(Nc2ccc(S(N)(=O)=O)cc2)sc1-c1nc(-c2ccc(O)cc2)cs1 [drawing 415]
23%		11.2%			−33.4%	8.2%	Nc1nc(Nc2ccc(S(N)(=O)=O)cc2)sc1-c1nc(-c2ccccc2)cs1 [drawing 421]
